# Tests used:
# Assay type in all cases: in vivo
# [1] = tested on: giant foxtail (Setaria faberi); test: Test A pre-/postemergence plant response
# Outline: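 Both pre- and postemergence treatment given concurrently; postemergence seedlings measured 2–10 cm at the one- to two-leaf stage. Visual injury, 0–100 scale versus untreated, at ~10 days.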
# [2] = tested on: bermudagrass (Cynodon dactylon); test: Test B pre-/postemergence plant response
# Text: (§1) Seeds of plant species selected from blackgrass (Alopecurus myosuroides), downy bromegrass (Bromus tectorum), green foxtail (Setaria viridis), Italian ryegrass (Lolium multiflorum), wheat (Triticum aestivum), wild oat (Avena fatua), catchweed bedstraw (Galium aparine), bermudagrass (Cynodon dactylon), surinam grass (Brachiaria decumbens), cocklebur (Xanthium strumarium), corn (Zea mays), large crabgrass (Digitaria sanguinalis), woolly cupgrass (Eriochloa villosa), giant foxtail (Setaria faberii), goosegrass (Eleusine indica), johnsongrass (Sorghum halepense), kochia (Kochia scoparia), lambsquarters (Chenopodium album), morningglory (Ipomoea coccinea), eastern black (E.B.) nightshade (Solanum ptycanthum), yellow nutsedge (Cyperus esculentus), pigweed (Amaranthus retroflexus), common ragweed (Ambrosia elation), Russian thistle (Salsola iberica), soybean (Glycine max), common (oilseed) sunflower (Helianthus annuus), and velvetleaf (Abutilon theophrasti) were planted and treated preemergence with test chemicals formulated in a non-phytotoxic solvent mixture which included a surfactant.
# (§2) At the same time, plants selected from these crop and weed species and also winter barley (Hordeum vulgare), canarygrass (Phalaris minor), chickweed (Stellaria media) and windgrass (Apera spica-venti) were treated with postemergence applications of some of the test chemicals formulated in the same manner. Plants ranged in height from 2 to 18 cm (1- to 4-leaf stage) for postemergence treatments.
# (§3) Plant species in the flooded paddy test consisted of rice (Oryza sativa), umbrella sedge (Cyperus difformis), ducksalad (Heteranthera limosa) and barnyardgrass (Echinochloa crus-galli) grown to the 2-leaf stage for testing. At time of treatment, test pots were flooded to 3 cm above the soil surface, treated by application of test compounds directly to the paddy water, and then maintained at that water depth for the duration of the test. Treated plants and controls were maintained in a greenhouse for 13 to 15 days, after which time all species were compared to controls and visually evaluated. Plant response ratings, summarized in Table B, are based on a scale of 0 to 100 where 0 is no effect and 100 is complete control. A dash (-) response means no test result.
# [3] = tested on: soybean (Glycine max); test: Test B pre-/postemergence plant response; settings: for Soybean plant response rating: postemergence, 0-100 scale
# Text: as §1, §2, §3
# [4] = tested on: common (oilseed) sunflower (Helianthus annuus); test: Test B pre-/postemergence plant response; settings: Preemergence
# Text: as §1, §2, §3
# [5] = tested on: pigweed (Amaranthus retroflexus); test: Test B pre-/postemergence plant response
# Text: as §1, §2, §3
# [6] = tested on: velvetleaf (Abutilon theophrasti); test: Test B pre-/postemergence plant response
# Text: as §1, §2, §3
# [7] = tested on: johnsongrass (Sorghum halepense); test: Test B pre-/postemergence plant response
# Text: as §1, §2, §3
# [8] = tested on: downy bromegrass (Bromus tectorum); test: Test B pre-/postemergence plant response; settings: for Bromegrass, Downy plant response rating: 8 g ai/ha
# Text: as §1, §2, §3
# [9] = tested on: blackgrass (Alopecurus myosuroides); test: Test B pre-/postemergence plant response
# Text: as §1, §2, §3
# [10] = tested on: goosegrass (Eleusine indica); test: Test B pre-/postemergence plant response
# Text: as §1, §2, §3
# [11] = tested on: giant foxtail (Setaria faberii); test: Test B pre-/postemergence plant response
# Text: as §1, §2, §3
# [12] = tested on: wheat (Triticum aestivum); test: Test B pre-/postemergence plant response
# Text: as §1, §2, §3
# [13] = 8 g ai/ha, postemergence, 0-100 scale
# [14] = Postemergence, 16 g ai/ha, scale 0 to 100
# [15] = Postemergence, 31 g ai/ha, scale 0 to 100
# [16] = Postemergence, 62 g ai/ha, scale 0 to 100, 0 no effect, 100 complete control
# [17] = Preemergence, 16 g ai/ha, scale 0 to 100 (0 no effect, 100 complete control)
# [18] = Preemergence, 31 g ai/ha, scale 0 to 100 (0 no effect, 100 complete control)
# [19] = Preemergence, 62 g ai/ha, 0 to 100 scale, 0 no effect, 100 complete control
# [20] = 16 g ai/ha, postemergence, 0-100 scale
# [21] = Preemergence, 8 g ai/ha, scale 0 to 100
# [22] = Preemergence, 16 g ai/ha, scale 0 to 100
# [23] = 250 g ai/ha, preemergence, 0-100 scale
# [24] = Preemergence, 31 g ai/ha, 0 to 100 scale, 0 no effect, 100 complete control
# [25] = Preemergence, 62 g ai/ha, scale 0 to 100
# [26] = Preemergence, 125 g ai/ha, scale 0 to 100
# [27] = Preemergence, 250 g ai/ha, scale 0 to 100
compound,measurement,setting,value
CCc1cc(-c2ccc(C(F)(F)F)cc2)nn1-c1c(O)cnn(CC)c1=O [Compound 67],"Plant response rating, Foxtail, Giant","[1]; Postemergence, 31 g ai/ha, 0 to 100 scale (0 no effect, 100 complete control)",100
same,"Plant response rating, Foxtail, Giant","[1]; Postemergence, 125 g ai/ha, 0 to 100 scale, 0 no effect, 100 complete control",100
same,"Plant response rating, Foxtail, Giant","[1]; Preemergence, 31 g ai/ha, 0 to 100 scale, 0 is no effect, 100 is complete control",40
same,"Plant response rating, Foxtail, Giant","[1]; Preemergence, 125 g ai/ha, 0 to 100 scale (0 no effect, 100 complete control)",100
same,Bermudagrass plant response rating,[2]; [13],0
same,"Plant response rating, Bermudagrass",[2]; [14],0
same,"Plant response rating, Bermudagrass",[2]; [15],60
same,"Plant response rating, Bermudagrass",[2]; [16],75
same,Bermudagrass plant response rating,"[2]; Preemergence, 8 g ai/ha, scale 0 to 100 (0 no effect, 100 complete control)",0
same,"Plant response rating, Bermudagrass",[2]; [17],0
same,"Plant response rating, Bermudagrass",[2]; [18],0
same,"Plant response rating, Bermudagrass",[2]; [19],0
same,Soybean plant response rating,[3]; 8 g ai/ha,0
same,Soybean plant response rating,[3]; 16 g ai/ha,0
same,"Plant response rating, Soybean",[3]; [15],0
same,"Plant response rating, Soybean",[3]; [16],15
same,"Plant response rating, Sunflower","[4]; 31 g ai/ha, scale 0 to 100 (0 no effect, 100 complete control)",0
same,"Plant response rating, Sunflower","[4]; 62 g ai/ha, 0 to 100 scale, 0 no effect, 100 complete control",0
same,Sunflower plant response rating,"[4]; 8 g ai/ha, scale 0 to 100",0
same,Sunflower plant response rating,"[4]; 16 g ai/ha, scale 0 to 100",0
same,Pigweed plant response rating,[5]; [13],0
same,Pigweed plant response rating,[5]; [20],0
same,"Plant response rating, Pigweed",[5]; [15],0
same,"Plant response rating, Pigweed",[5]; [16],0
same,"Plant response rating, Pigweed",[5]; [18],0
same,"Plant response rating, Pigweed",[5]; [19],0
same,Pigweed plant response rating,[5]; [21],0
same,Pigweed plant response rating,[5]; [22],0
same,Velvetleaf plant response rating,[6]; [13],0
same,Velvetleaf plant response rating,[6]; [20],0
same,"Plant response rating, Velvetleaf",[6]; [15],0
same,"Plant response rating, Velvetleaf",[6]; [16],0
same,"Plant response rating, Velvetleaf",[6]; [18],0
same,"Plant response rating, Velvetleaf",[6]; [19],0
same,Velvetleaf plant response rating,[6]; [21],0
same,Velvetleaf plant response rating,[6]; [22],0
same,Johnsongrass plant response rating,[7]; [13],80
same,Johnsongrass plant response rating,[7]; [20],98
same,"Plant response rating, Johnsongrass",[7]; [15],100
same,"Plant response rating, Johnsongrass",[7]; [16],100
same,"Plant response rating, Johnsongrass",[7]; [18],100
same,"Plant response rating, Johnsongrass",[7]; [19],100
same,Johnsongrass plant response rating,[7]; [21],70
same,Johnsongrass plant response rating,[7]; [22],90
same,"Bromegrass, Downy plant response rating","[8]; postemergence, 0-100 scale",55
same,"Plant response rating, Bromegrass, Downy",[8]; [14],80
same,"Plant response rating, Bromegrass, Downy",[8]; [15],80
same,"Plant response rating, Bromegrass, Downy",[8]; [16],100
same,"Plant response rating, Bromegrass, Downy",[8]; [17],90
same,"Plant response rating, Bromegrass, Downy",[8]; [18],100
same,"Plant response rating, Bromegrass, Downy",[8]; [19],100
same,"Bromegrass, Downy plant response rating","[8]; Preemergence, scale 0 to 100",50
same,Blackgrass plant response rating,[9]; [13],85
same,"Plant response rating, Blackgrass",[9]; [14],100
same,"Plant response rating, Blackgrass",[9]; [15],100
same,"Plant response rating, Blackgrass",[9]; [16],100
same,"Plant response rating, Blackgrass",[9]; [17],100
same,"Plant response rating, Blackgrass",[9]; [18],100
same,"Plant response rating, Blackgrass",[9]; [19],100
same,Blackgrass plant response rating,[9]; [21],100
same,Goosegrass plant response rating,[10]; [13],65
same,Goosegrass plant response rating,[10]; [20],70
same,"Plant response rating, Goosegrass",[10]; [15],85
same,"Plant response rating, Goosegrass",[10]; [16],90
same,"Plant response rating, Goosegrass",[10]; [18],0
same,"Plant response rating, Goosegrass",[10]; [19],60
same,Goosegrass plant response rating,[10]; [21],0
same,Goosegrass plant response rating,[10]; [22],0
same,"Foxtail, Giant plant response rating",[11]; [13],85
same,"Plant response rating, Foxtail, Giant",[11]; [14],95
same,"Plant response rating, Foxtail, Giant",[11]; [15],100
same,"Plant response rating, Foxtail, Giant",[11]; [16],100
same,"Plant response rating, Foxtail, Giant",[11]; [18],0
same,"Plant response rating, Foxtail, Giant",[11]; [19],0
same,"Foxtail, Giant plant response rating",[11]; [21],0
same,"Foxtail, Giant plant response rating",[11]; [22],0
same,Wheat plant response rating,[12]; [13],95
same,Wheat plant response rating,[12]; [20],100
same,"Plant response rating, Wheat",[12]; [15],100
same,"Plant response rating, Wheat",[12]; [16],100
same,"Plant response rating, Wheat",[12]; [18],100
same,"Plant response rating, Wheat",[12]; [19],100
same,Wheat plant response rating,[12]; [22],70
Cc1cc(-c2ccc(C(F)(F)F)cc2)nn1-c1c(OC(=O)C(C)(C)C)cnn(C)c1=O [Compound 2],"Plant response rating, Foxtail, Giant","[1]; Postemergence, 1000 g ai/ha, 0 to 100 scale, 0 no effect, 100 complete control",90
same,"Plant response rating, Foxtail, Giant","[1]; Preemergence, 1000 g ai/ha, 0 to 100 scale (0 no effect, 100 complete control)",100
same,Bermudagrass plant response rating,[2]; [23],100
same,"Plant response rating, Bermudagrass",[2]; [24],100
same,"Plant response rating, Bermudagrass",[2]; [25],100
same,"Plant response rating, Bermudagrass",[2]; [26],100
same,"Plant response rating, Soybean",[3]; [24],0
same,"Plant response rating, Soybean",[3]; [25],0
same,"Plant response rating, Soybean",[3]; [26],0
same,"Plant response rating, Soybean",[3]; [27],0
same,"Plant response rating, Sunflower","[4]; 31 g ai/ha, 0 to 100 scale, 0 no effect, 100 complete control",0
same,"Plant response rating, Sunflower","[4]; 62 g ai/ha, scale 0 to 100",0
same,"Plant response rating, Sunflower","[4]; 125 g ai/ha, scale 0 to 100",0
same,"Plant response rating, Sunflower","[4]; 250 g ai/ha, scale 0 to 100",0
same,"Plant response rating, Pigweed",[5]; [24],0
same,"Plant response rating, Pigweed",[5]; [25],0
same,"Plant response rating, Pigweed",[5]; [26],70
same,"Plant response rating, Pigweed",[5]; [27],70
same,"Plant response rating, Velvetleaf",[6]; [24],0
same,"Plant response rating, Velvetleaf",[6]; [25],0
same,"Plant response rating, Velvetleaf",[6]; [26],0
same,"Plant response rating, Velvetleaf",[6]; [27],10
same,"Plant response rating, Johnsongrass",[7]; [25],80
same,"Plant response rating, Johnsongrass",[7]; [27],80
same,"Plant response rating, Bromegrass, Downy",[8]; [24],0
same,"Plant response rating, Bromegrass, Downy",[8]; [25],20
same,"Plant response rating, Bromegrass, Downy",[8]; [26],70
same,Blackgrass plant response rating,[9]; [23],100
same,"Plant response rating, Blackgrass",[9]; [24],60
same,"Plant response rating, Blackgrass",[9]; [25],80
same,"Plant response rating, Blackgrass",[9]; [26],100
same,"Plant response rating, Goosegrass",[10]; [24],50
same,"Plant response rating, Goosegrass",[10]; [25],60
same,"Plant response rating, Goosegrass",[10]; [26],95
same,"Plant response rating, Goosegrass",[10]; [27],95
same,"Plant response rating, Foxtail, Giant",[11]; [24],100
same,"Plant response rating, Foxtail, Giant",[11]; [25],100
same,"Plant response rating, Foxtail, Giant",[11]; [26],100
same,"Plant response rating, Foxtail, Giant",[11]; [27],100
same,"Plant response rating, Wheat",[12]; [24],30
same,"Plant response rating, Wheat",[12]; [25],50
same,"Plant response rating, Wheat",[12]; [26],60
same,"Plant response rating, Wheat",[12]; [27],75

# Source: patent US20100267561A1, “HERBICIDAL PYRIDAZINONE DERIVATIVES” (priority 2007, published 2010)
